Assay results published in PubChem BioAssay (NCI).
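Compound exposure: 48 hours, 5 concentrations, 96-well plates. GI50 is the concentration that inhibits growth by half. At the TGI there is no net growth.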

How the values were obtained:
Test in all cases: growth of human tumour cells (NCI), 48 h
786-0 renal = system: 786-0 renal
A498 renal = system: A498 renal
A549 NSCLC = system: A549 NSCLC
ACHN renal = system: ACHN renal
BT-549 breast = system: BT-549 breast
CAKI-1 renal = system: CAKI-1 renal
CCRF-CEM leukemia = system: CCRF-CEM leukemia
COLO 205 colon = system: COLO 205 colon
DU-145 prostate = system: DU-145 prostate
HCC-2998 colon = system: HCC-2998 colon
HCT-116 colon = system: HCT-116 colon
HCT-15 colon = system: HCT-15 colon
HL-60(TB) leukemia = system: HL-60(TB) leukemia
HOP-62 NSCLC = system: HOP-62 NSCLC
HOP-92 NSCLC = system: HOP-92 NSCLC
HS 578T breast = system: HS 578T breast
HT29 colon = system: HT29 colon
IGROV1 ovarian = system: IGROV1 ovarian
K-562 leukemia = system: K-562 leukemia
KM12 colon = system: KM12 colon
LOX IMVI melanoma = system: LOX IMVI melanoma
M14 melanoma = system: M14 melanoma
MALME-3M melanoma = system: MALME-3M melanoma
MCF7 breast = system: MCF7 breast
MDA-MB-231 breast = system: MDA-MB-231 breast
MDA-MB-435 = system: MDA-MB-435
MOLT-4 leukemia = system: MOLT-4 leukemia
NCI-H226 lung = system: NCI-H226 lung
NCI-H23 lung = system: NCI-H23 lung
NCI-H460 lung = system: NCI-H460 lung
NCI-H522 lung = system: NCI-H522 lung
NCI/ADR-RES ovarian = system: NCI/ADR-RES ovarian
OVCAR-3 ovarian = system: OVCAR-3 ovarian
OVCAR-4 ovarian = system: OVCAR-4 ovarian
OVCAR-5 ovarian = system: OVCAR-5 ovarian
OVCAR-8 ovarian = system: OVCAR-8 ovarian
RPMI-8226 leukemia = system: RPMI-8226 leukemia
RXF 393 renal = system: RXF 393 renal
SF-268 CNS = system: SF-268 CNS
SF-295 CNS = system: SF-295 CNS
SF-539 CNS = system: SF-539 CNS
SK-MEL-28 melanoma = system: SK-MEL-28 melanoma
SK-MEL-5 melanoma = system: SK-MEL-5 melanoma
SK-OV-3 ovarian = system: SK-OV-3 ovarian
SN12C renal = system: SN12C renal
SNB-19 CNS = system: SNB-19 CNS
SNB-75 CNS = system: SNB-75 CNS
SR leukemia = system: SR leukemia
SW-620 colon = system: SW-620 colon
T-47D breast = system: T-47D breast
TK-10 renal = system: TK-10 renal
U251 CNS = system: U251 CNS
UACC-257 melanoma = system: UACC-257 melanoma
UACC-62 melanoma = system: UACC-62 melanoma
UO-31 renal = system: UO-31 renal

O=C(Nc1nc(-c2ccc(Cl)cc2)cs1)c1ccc(O)c(O)c1
GI50 (786-0 renal): 4.07 µM | TGI (786-0 renal): 15.3 µM | GI50 (A498 renal): 3.37 µM | TGI (A498 renal): 15.5 µM | GI50 (A549 NSCLC): 2.91 µM | TGI (A549 NSCLC): 14.3 µM | GI50 (ACHN renal): 3.24 µM | TGI (ACHN renal): 12.1 µM | GI50 (BT-549 breast): 3.49 µM | TGI (BT-549 breast): 17.9 µM | GI50 (CAKI-1 renal): 3.02 µM | TGI (CAKI-1 renal): 10.9 µM | GI50 (CCRF-CEM leukemia): 2.22 µM | TGI (CCRF-CEM leukemia): 9.35 µM | GI50 (COLO 205 colon): 11.4 µM | TGI (COLO 205 colon): 26.5 µM | GI50 (DU-145 prostate): 4.43 µM | TGI (DU-145 prostate): 15.9 µM | GI50 (HCC-2998 colon): 12 µM | TGI (HCC-2998 colon): 26.5 µM | GI50 (HCT-116 colon): 3.71 µM | TGI (HCT-116 colon): 14.3 µM | GI50 (HCT-15 colon): 3.14 µM | TGI (HCT-15 colon): 18.3 µM | GI50 (HL-60(TB) leukemia): 2.85 µM | TGI (HL-60(TB) leukemia): 9.53 µM | GI50 (HOP-62 NSCLC): 4.68 µM | TGI (HOP-62 NSCLC): 17.6 µM | GI50 (HOP-92 NSCLC): 2.67 µM | TGI (HOP-92 NSCLC): 9.18 µM | GI50 (HS 578T breast): 9.45 µM | TGI (HS 578T breast): 53.9 µM | GI50 (HT29 colon): 11.6 µM | TGI (HT29 colon): 24.7 µM | GI50 (IGROV1 ovarian): 2.38 µM | TGI (IGROV1 ovarian): 8.04 µM | GI50 (K-562 leukemia): 3.46 µM | TGI (K-562 leukemia): 20 µM | GI50 (KM12 colon): 5.36 µM | TGI (KM12 colon): 21.2 µM | GI50 (LOX IMVI melanoma): 4.26 µM | TGI (LOX IMVI melanoma): 15.7 µM | GI50 (M14 melanoma): 4.87 µM | TGI (M14 melanoma): 20.5 µM | GI50 (MALME-3M melanoma): 5.73 µM | TGI (MALME-3M melanoma): 22.2 µM | GI50 (MCF7 breast): 5.49 µM | TGI (MCF7 breast): 43.4 µM | GI50 (MDA-MB-231 breast): 4.39 µM | TGI (MDA-MB-231 breast): 20.4 µM | GI50 (MDA-MB-435): 3.18 µM | TGI (MDA-MB-435): 14.4 µM | GI50 (MOLT-4 leukemia): 2.48 µM | TGI (MOLT-4 leukemia): 12.3 µM | GI50 (NCI-H226 lung): 4.65 µM | TGI (NCI-H226 lung): 19.7 µM | GI50 (NCI-H23 lung): 4.27 µM | TGI (NCI-H23 lung): 20.3 µM | GI50 (NCI-H460 lung): 3.26 µM | TGI (NCI-H460 lung): 12.2 µM | GI50 (NCI-H522 lung): 1.8 µM | TGI (NCI-H522 lung): 9.97 µM | GI50 (NCI/ADR-RES ovarian): 3.89 µM | TGI (NCI/ADR-RES ovarian): 20.3 µM | GI50 (OVCAR-3 ovarian): 5.03 µM | TGI (OVCAR-3 ovarian): 18.2 µM | GI50 (OVCAR-4 ovarian): 4.33 µM | TGI (OVCAR-4 ovarian): 35.9 µM | GI50 (OVCAR-5 ovarian): 14.7 µM | TGI (OVCAR-5 ovarian): 36.1 µM | GI50 (OVCAR-8 ovarian): 4.14 µM | TGI (OVCAR-8 ovarian): 16.7 µM | GI50 (RPMI-8226 leukemia): 2.14 µM | TGI (RPMI-8226 leukemia): 10.7 µM | GI50 (RXF 393 renal): 3.82 µM | TGI (RXF 393 renal): 17 µM | GI50 (SF-268 CNS): 3.54 µM | TGI (SF-268 CNS): 13.9 µM | GI50 (SF-295 CNS): 11.5 µM | TGI (SF-295 CNS): 26.2 µM | GI50 (SF-539 CNS): 3.92 µM | TGI (SF-539 CNS): 14.8 µM | GI50 (SK-MEL-28 melanoma): 3.63 µM | TGI (SK-MEL-28 melanoma): 20 µM | GI50 (SK-MEL-5 melanoma): 2.98 µM | TGI (SK-MEL-5 melanoma): 12 µM | GI50 (SK-OV-3 ovarian): 6.83 µM | TGI (SK-OV-3 ovarian): 22.4 µM | GI50 (SN12C renal): 3.67 µM | TGI (SN12C renal): 15.7 µM | GI50 (SNB-19 CNS): 3.82 µM | TGI (SNB-19 CNS): 19.7 µM | GI50 (SNB-75 CNS): 3.25 µM | TGI (SNB-75 CNS): 17.4 µM | GI50 (SR leukemia): 2.09 µM | TGI (SR leukemia): 9.26 µM | GI50 (SW-620 colon): 4.74 µM | TGI (SW-620 colon): 20.1 µM | GI50 (T-47D breast): 2.87 µM | TGI (T-47D breast): 18.5 µM | GI50 (TK-10 renal): 2.87 µM | TGI (TK-10 renal): 9.98 µM | GI50 (U251 CNS): 3 µM | TGI (U251 CNS): 13.7 µM | GI50 (UACC-257 melanoma): 6.29 µM | TGI (UACC-257 melanoma): 24.3 µM | GI50 (UACC-62 melanoma): 4.24 µM | TGI (UACC-62 melanoma): 18.1 µM | GI50 (UO-31 renal): 2.29 µM | TGI (UO-31 renal): 10.6 µM
